Calls of active or inactive are those of the source.
Tests used:
Cannabinoid receptor 1 [1] = molecular target: T1, Cannabinoid receptor 1 (Homo sapiens, UniProt P21554); assay: SAR analysis of agonists of the Cannabinoid Receptor 1 using an Image-Based Assay - Set 3. [Related pubchem assays (depositor defined):AID1961, AID1965]; assay type: functional
Cannabinoid receptor 2 [2] = molecular target: T2, Cannabinoid receptor 2 (Homo sapiens, UniProt P34972); assay: SAR analysis of antagonists of the Cannabinoid Receptor 2 using an Image-Based Assay - Set 2. [Related pubchem assays (depositor defined):AID1961, AID1965]; assay type: functional
[3] = molecular target: T3, G-protein coupled receptor 35 (Homo sapiens, UniProt Q9HC97); assay: SAR analysis of Antagonists of the GPR35 Receptor using an Image-Based Assay - Set 4. [Related pubchem assays (depositor defined):[…]]; assay type: functional
[4] = molecular target: G-protein coupled receptor 55 (Homo sapiens, UniProt Q9Y2T6); assay: SAR analysis of selective Agonists of GPR55 using an Image-Based Assay - Set 2. [Related pubchem assays (depositor defined):AID1961, AID1965]; assay type: functional
Cannabinoid receptor 2 [5] = molecular target: T2, Cannabinoid receptor 2; assay: SAR analysis of agonists of the Cannabinoid Receptor 2 using an Image-Based Assay - Set 2. [Related pubchem assays (depositor defined):AID1961, AID1965]; assay type: functional
Cannabinoid receptor 1 [6] = molecular target: T1, Cannabinoid receptor 1; assay: SAR analysis of antagonists of the Cannabinoid Receptor 1 using an Image-Based Assay - Set 3. [Related pubchem assays (depositor defined):AID1961, AID1965]; assay type: functional
[7] = molecular target: T3, G-protein coupled receptor 35; assay: SAR analysis of Agonists of the GPR35 Receptor using an Image-Based Assay - Set 3. [Related pubchem assays (depositor defined):AID1961, AID1965]; assay type: functional
[8] = Luminescence Cell-Based Dose Retest to Confirm Inhibitors of Cancer Stem Cells. [Related pubchem assays (depositor defined):AID2717, AID2721]; assay type: functional; conditions: Homo sapiens
X-box-binding protein 1 = X-box-binding protein 1 (Homo sapiens, UniProt P17861); assay type: functional, Cricetulus griseus;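 also: confirmatory dose-response counter-screen serving a CHOP assay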
[9] = molecular target: DNA damage-inducible transcript 3 protein (Mus musculus, UniProt P35639); assay type: functional, Cricetulus griseus
Protein RecA = molecular target: T4, Protein RecA (Mycobacterium tuberculosis, UniProt P9WHJ3); assay: Fluorescence Cell-Free Homogeneous Dose Retest to Identify Inhibitors of RecA-Intein Splicing Activity. [Related pubchem assays (depositor defined):AID2097, AID2223, AID489010, AID492950]; assay type: functional
T4 sequence (P9WHJ3 whole entry): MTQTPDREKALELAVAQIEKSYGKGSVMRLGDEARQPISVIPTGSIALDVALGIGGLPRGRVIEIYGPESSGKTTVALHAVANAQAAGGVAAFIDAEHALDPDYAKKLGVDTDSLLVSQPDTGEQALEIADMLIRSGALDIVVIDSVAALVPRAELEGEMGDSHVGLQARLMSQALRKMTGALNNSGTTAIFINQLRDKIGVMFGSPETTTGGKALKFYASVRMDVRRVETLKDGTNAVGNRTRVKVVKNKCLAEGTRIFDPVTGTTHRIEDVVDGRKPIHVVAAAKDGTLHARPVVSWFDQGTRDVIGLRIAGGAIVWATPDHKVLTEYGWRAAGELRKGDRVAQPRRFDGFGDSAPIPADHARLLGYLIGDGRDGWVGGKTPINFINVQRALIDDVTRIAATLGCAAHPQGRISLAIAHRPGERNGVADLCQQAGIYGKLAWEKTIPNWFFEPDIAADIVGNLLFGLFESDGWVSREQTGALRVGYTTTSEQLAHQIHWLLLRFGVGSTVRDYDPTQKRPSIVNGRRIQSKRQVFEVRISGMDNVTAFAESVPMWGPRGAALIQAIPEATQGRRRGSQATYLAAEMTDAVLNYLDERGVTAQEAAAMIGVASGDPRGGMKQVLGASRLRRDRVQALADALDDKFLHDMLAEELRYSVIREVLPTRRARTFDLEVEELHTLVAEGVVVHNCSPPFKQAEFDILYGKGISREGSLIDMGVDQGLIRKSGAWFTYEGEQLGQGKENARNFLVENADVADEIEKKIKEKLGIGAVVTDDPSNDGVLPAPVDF

Aminopeptidase N = molecular target: T5, Aminopeptidase N (Plasmodium falciparum FcB1/Columbia, UniProt O96935); assay: malaria alanyl aminopeptidase activity blockers – biochemical, fluorogenic H-Leu-NHMec substrate, 1536-well (AID 1445); set-up: species or system Plasmodium falciparum 3D7, 3D7
T5 sequence (O96935 whole entry): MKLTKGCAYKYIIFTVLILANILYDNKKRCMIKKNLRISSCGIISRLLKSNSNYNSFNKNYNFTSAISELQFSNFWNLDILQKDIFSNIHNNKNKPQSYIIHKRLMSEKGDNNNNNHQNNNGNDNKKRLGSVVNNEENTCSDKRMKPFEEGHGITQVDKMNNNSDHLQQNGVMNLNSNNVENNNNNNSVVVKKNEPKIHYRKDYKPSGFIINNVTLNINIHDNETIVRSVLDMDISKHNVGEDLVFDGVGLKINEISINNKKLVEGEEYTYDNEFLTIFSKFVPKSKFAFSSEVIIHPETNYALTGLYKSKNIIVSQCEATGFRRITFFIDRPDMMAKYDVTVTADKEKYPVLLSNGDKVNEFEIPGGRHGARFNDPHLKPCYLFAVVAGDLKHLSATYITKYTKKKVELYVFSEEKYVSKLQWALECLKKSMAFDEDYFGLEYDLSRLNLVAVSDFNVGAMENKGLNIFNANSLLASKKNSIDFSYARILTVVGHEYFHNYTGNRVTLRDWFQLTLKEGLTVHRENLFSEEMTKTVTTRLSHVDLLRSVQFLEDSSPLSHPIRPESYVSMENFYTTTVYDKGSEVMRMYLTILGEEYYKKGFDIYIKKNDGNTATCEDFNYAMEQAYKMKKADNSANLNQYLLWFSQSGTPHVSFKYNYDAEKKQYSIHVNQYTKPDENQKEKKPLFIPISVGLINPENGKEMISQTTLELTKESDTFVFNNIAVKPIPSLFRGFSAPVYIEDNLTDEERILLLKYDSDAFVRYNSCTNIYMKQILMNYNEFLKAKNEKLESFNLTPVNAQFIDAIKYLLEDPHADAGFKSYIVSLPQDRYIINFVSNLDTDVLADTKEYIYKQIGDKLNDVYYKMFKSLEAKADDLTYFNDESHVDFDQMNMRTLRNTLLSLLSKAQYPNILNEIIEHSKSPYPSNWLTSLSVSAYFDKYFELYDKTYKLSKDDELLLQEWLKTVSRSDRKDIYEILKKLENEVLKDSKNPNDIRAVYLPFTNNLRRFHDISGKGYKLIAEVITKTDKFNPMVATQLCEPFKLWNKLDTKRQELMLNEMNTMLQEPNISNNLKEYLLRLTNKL

[10] = viability of HCT116 lacking mutant beta-catenin – cell-based, human colon tumor, dose response (AID 1045); assay type: functional;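 also: HCT116 colon tumor cells with beta catenin knocked out; cells exposed to compound for 60 hours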
Bcl-2-like protein 10 = molecular target: T6, Bcl-2-like protein 10 (Homo sapiens, UniProt Q9HD36); assay: Bcl-B/TR3 peptide binding disruption – biochemical, fluorescence polarization, FITC-TR3 peptide, selectivity assay for Bfl-1 inhibitor project, primary screen (AID 748);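 also: fluorescence polarization from a fluorescein-labelled TR3 peptide binding purified Bcl-B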
T6 sequence (Q9HD36 whole entry): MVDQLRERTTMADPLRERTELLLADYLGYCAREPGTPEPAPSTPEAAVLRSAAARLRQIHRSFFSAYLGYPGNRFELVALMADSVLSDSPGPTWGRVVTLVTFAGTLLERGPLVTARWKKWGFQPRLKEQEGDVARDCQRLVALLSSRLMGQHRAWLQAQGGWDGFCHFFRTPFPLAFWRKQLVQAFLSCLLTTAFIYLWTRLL

[11] = molecular target: T7, Replicative DNA helicase DnaB (Mycobacterium tuberculosis, UniProt P9WMR3); assay: DnaB intein splicing inhibitors, dose response, biochemical, cell-free fluorescence (AID 449749); assay type: functional
T7 sequence (P9WMR3 whole entry): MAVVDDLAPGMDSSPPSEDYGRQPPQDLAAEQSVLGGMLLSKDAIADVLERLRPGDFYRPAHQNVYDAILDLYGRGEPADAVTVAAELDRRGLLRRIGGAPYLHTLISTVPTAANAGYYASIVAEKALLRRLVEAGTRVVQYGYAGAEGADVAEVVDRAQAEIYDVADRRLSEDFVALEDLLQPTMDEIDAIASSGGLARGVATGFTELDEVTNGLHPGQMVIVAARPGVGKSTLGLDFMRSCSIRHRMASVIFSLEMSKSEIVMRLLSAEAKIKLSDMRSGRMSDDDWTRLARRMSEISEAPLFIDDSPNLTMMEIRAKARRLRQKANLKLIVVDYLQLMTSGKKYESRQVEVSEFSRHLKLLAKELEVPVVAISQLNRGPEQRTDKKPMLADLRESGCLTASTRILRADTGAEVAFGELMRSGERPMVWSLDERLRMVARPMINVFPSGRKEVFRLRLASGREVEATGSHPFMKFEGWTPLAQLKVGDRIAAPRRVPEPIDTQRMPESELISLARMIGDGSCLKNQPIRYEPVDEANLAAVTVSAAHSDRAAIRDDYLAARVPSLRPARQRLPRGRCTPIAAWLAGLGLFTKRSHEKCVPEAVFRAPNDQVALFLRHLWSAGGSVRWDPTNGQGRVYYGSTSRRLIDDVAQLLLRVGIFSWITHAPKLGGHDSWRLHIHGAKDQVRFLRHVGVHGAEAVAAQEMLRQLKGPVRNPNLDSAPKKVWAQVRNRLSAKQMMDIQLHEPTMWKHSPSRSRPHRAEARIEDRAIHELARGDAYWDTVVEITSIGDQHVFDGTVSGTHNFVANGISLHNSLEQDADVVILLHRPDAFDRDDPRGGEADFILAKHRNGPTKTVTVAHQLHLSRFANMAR

[12] = Intein inhibitors as potential Tuberculosis drugs, a cytotoxicity screen. [Related pubchem assays (depositor defined):AID2221, AID2223, AID434968, AID435010, AID449749, AID449750, AID489010]; assay type: functional
[13] = viability of PTEN-deleted HCT116 cells – cell-based, HCT116 PTEN knockout, dose response (AID 1047); assay type: functional;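 also: HCT116 colon tumor cells with PTEN knocked out; cells exposed to compound for 60 hours before readout; potency for loss of cell viability measured by luminescence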
[14] = viability of uninfected HEp-2 cells – cell-based, HTS, cytotoxicity control for RSV inhibitor project, dose response (AID 2410); assay type: functional; conditions: human respiratory syncytial virus
Coagulation factor XII = molecular target: T8, Coagulation factor XII (Homo sapiens, UniProt P00748); assay: Factor XIIa Dose Response Confirmation from Single Well HTS. [Related pubchem assays (depositor defined):AID701]; assay type: functional
T8 sequence (P00748 whole entry): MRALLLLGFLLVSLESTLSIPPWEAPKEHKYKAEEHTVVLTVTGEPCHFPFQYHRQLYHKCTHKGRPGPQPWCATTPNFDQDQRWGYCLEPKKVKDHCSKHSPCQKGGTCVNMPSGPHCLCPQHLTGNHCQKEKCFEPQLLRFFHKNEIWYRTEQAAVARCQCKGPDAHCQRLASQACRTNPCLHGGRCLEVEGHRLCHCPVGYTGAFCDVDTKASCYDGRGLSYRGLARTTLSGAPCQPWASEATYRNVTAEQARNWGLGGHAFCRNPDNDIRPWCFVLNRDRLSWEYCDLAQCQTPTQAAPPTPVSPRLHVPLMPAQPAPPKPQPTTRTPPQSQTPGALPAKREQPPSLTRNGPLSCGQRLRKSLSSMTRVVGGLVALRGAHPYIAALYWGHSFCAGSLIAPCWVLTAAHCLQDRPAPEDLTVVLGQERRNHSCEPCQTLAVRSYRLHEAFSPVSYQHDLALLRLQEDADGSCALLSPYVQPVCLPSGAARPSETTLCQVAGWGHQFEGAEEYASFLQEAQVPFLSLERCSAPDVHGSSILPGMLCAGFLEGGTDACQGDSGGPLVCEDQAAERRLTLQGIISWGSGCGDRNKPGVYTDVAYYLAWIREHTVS

T3 sequence (Q9HC97 whole entry): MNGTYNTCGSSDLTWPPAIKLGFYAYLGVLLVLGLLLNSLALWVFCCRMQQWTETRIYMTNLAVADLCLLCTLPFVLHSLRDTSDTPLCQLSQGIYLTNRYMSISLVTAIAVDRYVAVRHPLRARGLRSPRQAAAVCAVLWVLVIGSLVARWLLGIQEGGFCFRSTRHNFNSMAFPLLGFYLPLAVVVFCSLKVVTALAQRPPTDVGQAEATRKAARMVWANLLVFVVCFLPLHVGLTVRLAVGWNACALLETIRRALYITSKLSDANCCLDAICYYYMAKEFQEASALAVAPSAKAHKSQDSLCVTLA
T1 sequence (P21554 whole entry): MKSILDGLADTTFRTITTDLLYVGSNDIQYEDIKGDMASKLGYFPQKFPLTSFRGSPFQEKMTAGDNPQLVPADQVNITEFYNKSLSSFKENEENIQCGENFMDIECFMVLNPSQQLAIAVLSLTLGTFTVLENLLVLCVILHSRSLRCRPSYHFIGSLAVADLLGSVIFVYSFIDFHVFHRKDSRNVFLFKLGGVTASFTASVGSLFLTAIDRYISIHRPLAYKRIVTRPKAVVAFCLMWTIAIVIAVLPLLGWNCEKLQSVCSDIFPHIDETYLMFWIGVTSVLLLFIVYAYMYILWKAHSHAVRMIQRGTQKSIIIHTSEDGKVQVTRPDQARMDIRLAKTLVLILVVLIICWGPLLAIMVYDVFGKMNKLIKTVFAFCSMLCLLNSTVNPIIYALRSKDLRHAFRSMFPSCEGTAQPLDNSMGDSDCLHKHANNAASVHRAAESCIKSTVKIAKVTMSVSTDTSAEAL
T2 sequence (P34972 whole entry): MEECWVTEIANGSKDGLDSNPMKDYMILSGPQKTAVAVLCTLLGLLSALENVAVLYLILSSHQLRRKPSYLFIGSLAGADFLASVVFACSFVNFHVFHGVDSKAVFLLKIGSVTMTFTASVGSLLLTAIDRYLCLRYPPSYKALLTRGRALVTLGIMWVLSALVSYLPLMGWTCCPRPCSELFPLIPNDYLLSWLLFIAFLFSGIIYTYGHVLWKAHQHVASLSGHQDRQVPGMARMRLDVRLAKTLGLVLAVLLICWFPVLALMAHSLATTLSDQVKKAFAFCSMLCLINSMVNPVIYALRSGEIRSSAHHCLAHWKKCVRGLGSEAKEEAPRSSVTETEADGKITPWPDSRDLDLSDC
DNA damage-inducible transcript 3 protein, sequence (P35639 whole entry): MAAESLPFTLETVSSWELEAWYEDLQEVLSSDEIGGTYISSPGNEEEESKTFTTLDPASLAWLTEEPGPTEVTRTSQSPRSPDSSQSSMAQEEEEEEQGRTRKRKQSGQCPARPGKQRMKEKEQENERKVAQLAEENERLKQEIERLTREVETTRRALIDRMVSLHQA
G-protein coupled receptor 55, sequence (Q9Y2T6 whole entry): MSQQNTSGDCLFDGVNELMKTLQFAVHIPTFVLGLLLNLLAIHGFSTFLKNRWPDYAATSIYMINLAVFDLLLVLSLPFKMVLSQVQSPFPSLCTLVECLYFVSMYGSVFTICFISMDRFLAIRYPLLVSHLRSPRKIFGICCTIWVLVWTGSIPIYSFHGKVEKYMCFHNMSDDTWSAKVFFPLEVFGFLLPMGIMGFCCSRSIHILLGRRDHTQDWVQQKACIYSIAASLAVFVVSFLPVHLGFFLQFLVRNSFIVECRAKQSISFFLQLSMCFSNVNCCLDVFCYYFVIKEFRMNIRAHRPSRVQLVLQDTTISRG
X-box-binding protein 1, sequence (P17861 whole entry): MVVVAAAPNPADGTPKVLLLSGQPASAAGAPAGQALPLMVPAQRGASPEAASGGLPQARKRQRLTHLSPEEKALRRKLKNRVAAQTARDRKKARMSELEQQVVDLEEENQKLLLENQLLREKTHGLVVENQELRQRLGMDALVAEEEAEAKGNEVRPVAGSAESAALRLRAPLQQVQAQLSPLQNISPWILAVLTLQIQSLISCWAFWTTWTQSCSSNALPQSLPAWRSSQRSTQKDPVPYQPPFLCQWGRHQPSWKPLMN

In the case of `Cc1ccc2cc(C)c3nnc(SCC(=O)N(C)c4nc(-c5ccccc5)cs4)n3c2c1`, the EC50 (Cannabinoid receptor 1 [1]) is reported as > 32 µM (inactive), the IC50 (Cannabinoid receptor 2 [2]) is reported as > 32 µM (inactive) and the IC50 [3] is reported as > 32 µM (inactive). For the same compound, the EC50 [4] was > 32 µM (inactive), the EC50 (Cannabinoid receptor 2 [5]) was > 32 µM (inactive) and the IC50 (Cannabinoid receptor 1 [6]) was 4.44 µM (active). For the same compound, the EC50 [7] was > 32 µM (inactive).
With `CCCc1ccc(O)c(/N=C/c2cc(Br)cc(OCC)c2O)c1` the AC50 [8] was 9.69 µM (active), the “Absolute IC50 (XBP1)” value (X-box-binding protein 1) was 10 µM and the “Absolute IC50 (CHOP)” value [9] was 10 µM.
For `Cc1ccc(O)c(/N=C/C2=C(O)c3ccccc3C2=O)c1`, the EC50 (Protein RecA) was 0.216 µM (active), the IC50 (Aminopeptidase N) was 71.9 µM (active) and the EC50 [10] was 22.2 µM (active). For the same compound, the IC50 (Bcl-2-like protein 10) was 44.7 µM (active), the AC50 [11] was 0.4 µM (active) and the CC50 [12] was > 40 µM (active). For the same compound, the EC50 [13] was 32 µM (active).
For `Cc1ccc(-c2cc(-c3ccccc3)c3c(N)c(S(C)(=O)=O)sc3n2)cc1`, the CC50 [14] was 48.4 µM (active) and the IC50 (Coagulation factor XII) was > 50 µM (inactive).

From ChEMBL document CHEMBL1201862, “PubChem BioAssay data set” (2004)
